# Test results: patent publication US20100249461A1, “TRIARYLAMINE DERIVATIVE” (priority 2007, published 2010)
# Key:
# Type in all cases: physicochemical
# [1] = Heat resistance of PMMA film sample (colorant residual rate); details: 5% by weight in PMMA film on PET; 80° C. for 400 hours; absorbance at maximum absorption wavelength after vs before
# Description: (§1) 2.5 g of PMMA and 0.125 g of the triarylamine derivative were dissolved in 25 ml of dichloromethane, and the solution was coated on a 100 μm-thick PET film. This was dried at 80° C. for 2 hours under reduced pressure to prepare a sample for assessment having a thickness of from 2 to 3 μm. The sample for assessment contained the triarylamine derivative at 5% by weight based on PMMA.
# (§2) The sample for assessment obtained above was heat-treated at 80° C. for 400 hours. The absorbance of the assessment sample at the maximum absorption wavelength of the triarylamine derivative (colorant) was measured, and a colorant residual rate (%) was obtained as a ratio of the absorbance after heat treatment relative to the absorbance before heat treatment.
# [2] = Solubility in 2-butanone (MEK)
# Description: Solubility (w/v %) of the triarylamine derivative in 2-butanone (MEK) was measured.
# [3] = Light resistance of PMMA film sample (colorant residual rate); details: 5% by weight in PMMA film on PET; xenon lamp 170,000 lux, UV cut filter, 170 hours; absorbance after vs before
# Description: as §1
# as §2, with “irradiation-treated” for “heat-treated at 80° C.”, “170 hours with a xenon lamp (170,000 lux, using an UV cut filter).” for “400 hours.”, “irradiation” for “heat”
# [4] = Wet heat resistance of PMMA film sample (colorant residual rate); details: 5% by weight in PMMA film on PET; 60° C. and relative humidity of 90% for 200 hours; absorbance after vs before
# Description: as §1
# as §2, with “subjected to wet heat treatment” for “heat-treated”, “60°” for “80°”, “C. and a relative humidity of 90%” for “C.”, “200” for “400”, “after wet” for “after”, “before wet” for “before”
Heat Resistance (colorant residual rate) [1] [%],Solubility (w/v) [2] [% w/v %],Light Resistance (colorant residual rate) [3] [%],Wet Heat Resistance (colorant residual rate) [4] [%],SMILES
80,16,98,45,CCCCN(CCCC)c1ccc([N+](=C2C=CC(=[N+](CCCC)CCCC)CC2)c2ccc(N(CCCC)CCCC)cc2)cc1 [drawing 14]
0,15,80,19,CCCCN(CCCC)c1ccc([N+](=C2C=CC(=[N+](CCCC)CCCC)CC2)c2ccc(N(CCCC)CCCC)cc2)cc1 [drawing 15]
